Assay results as given in publication PMC7406636, “In vivo and in silico characterization of apocynin in reducing organ oxidative stress: A pharmacokinetic and pharmacodynamic study” (Pharmacology Research & Perspectives, 2020).

Experiment: Time-dependent distribution of apocynin in plasma, urine and tissues after iv bolus injection (HPLC-MS/MS)
Assay type: in vivo, mouse
Settings: plasma, brain and liver samples after iv bolus injection of apocynin, HPLC-MS/MS
Procedure: All studies were performed in accordance with the protocols approved by the Home Office under the Animals (Scientific Procedures) Act 1986, UK. For the PKPD study, male CD1 mice (Charles River Ltd) at 12 weeks of age with a body weight range between 25 and 30 g were used for the study. Mice were fasted 12 hours before bolus iv injection of apocynin at 5 mg/kg body weight (dosing volume 5 mL/kg) via a lateral tail vein. Control mice were injected with vehicle (solvent of apocynin) at each time points. Four mice/per time points were sacrificed at 0, 1, 2.5, 5, 15, 30, 60 minutes and then at 3, 6, 12, and 24 hours after iv injection of apocynin. Blood samples were collected and centrifuged at 2000 g, 4°C for 10 minutes for plasma collection. Urine samples were collected from bladders. Tissues were harvested for further experiments.
The detection of apocynin in tissue sample was performed as described previously with some modifications. ^17 In brief, apocynin was detected using an Accela HPLC coupled to a linear ion‐trap tandem mass spectrometry (LTQ‐Orbitrap XL; Thermo‐Fisher Scientific) (HPLC‐MS/MS) in the negative ion mode. Phenacetin (500 ng/mL) was used as an internal standard in every vial. A reversed‐phase 50 × 2.1 mm ID, […], 175 Å pore C18 Hypersil Gold column (Thermo Scientific) was used with injection volume set at 5 µL for the separation of apocynin and phenacetin. Calibration curve used for PK analysis was constructed by spiking apocynin in mouse plasma using eight calibrators ranging from 1 to 10000 ng/mL with great reproducibility and R ^2 ≥ 0.996 for subsequent 5 separate experiments on different days. […] Limit of detection for apocynin was set up at signal to noise ratio ≥ 3, ^18 which is 1 ng/mL in our system. The limitation of quantification was set up at signal to noise ratio ≥ 10, which is 10 ng/mL in our system. Orbitrap component was used for the full scan spectra of apocynin and diapocynin.

diapocynin detection as metabolite in samples: not detected
SMILES: COc1cc(C(C)=O)cc(-c2cc(C(C)=O)cc(OC)c2O)c1O [Diapocynin]
